In US12612380B2, “Non-lysosomal glucosylceramidase inhibitors and uses thereof” (ALECTOS THERAPEUTICS INC., priority 2019, dated 2026):

What follows are compounds tested against T1, GBA2 (Homo sapiens, UniProt Q9HCG7) (assay: Determination of IC50 values for inhibition of GBA2 in cell lysate). Conditions: not given.
T1 sequence (Q9HCG7 1-927): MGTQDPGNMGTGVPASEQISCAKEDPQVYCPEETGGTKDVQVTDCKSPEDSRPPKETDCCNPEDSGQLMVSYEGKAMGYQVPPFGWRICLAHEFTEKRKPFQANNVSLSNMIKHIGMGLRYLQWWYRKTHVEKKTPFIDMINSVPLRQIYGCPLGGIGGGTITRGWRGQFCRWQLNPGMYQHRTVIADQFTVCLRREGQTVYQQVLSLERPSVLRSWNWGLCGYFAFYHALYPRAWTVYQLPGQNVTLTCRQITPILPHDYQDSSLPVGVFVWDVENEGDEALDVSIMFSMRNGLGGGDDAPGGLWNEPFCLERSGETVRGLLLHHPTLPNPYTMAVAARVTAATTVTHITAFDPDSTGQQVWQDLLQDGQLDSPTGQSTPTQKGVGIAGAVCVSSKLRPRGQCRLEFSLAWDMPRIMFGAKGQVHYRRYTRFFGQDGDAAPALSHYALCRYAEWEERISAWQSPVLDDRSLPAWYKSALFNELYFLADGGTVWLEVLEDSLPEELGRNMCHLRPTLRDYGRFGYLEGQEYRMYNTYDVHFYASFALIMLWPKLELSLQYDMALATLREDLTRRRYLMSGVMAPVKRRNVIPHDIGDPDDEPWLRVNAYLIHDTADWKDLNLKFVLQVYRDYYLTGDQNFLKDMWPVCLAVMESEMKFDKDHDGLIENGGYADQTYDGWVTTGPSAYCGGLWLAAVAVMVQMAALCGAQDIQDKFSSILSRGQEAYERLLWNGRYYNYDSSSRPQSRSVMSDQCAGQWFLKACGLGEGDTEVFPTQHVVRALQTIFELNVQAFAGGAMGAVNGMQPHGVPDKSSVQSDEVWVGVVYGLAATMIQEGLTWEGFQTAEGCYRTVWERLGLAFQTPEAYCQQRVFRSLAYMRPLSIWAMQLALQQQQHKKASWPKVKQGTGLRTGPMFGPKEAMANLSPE
Format: biochemical
Design: host or cells: HEK293T (lentiviral transduction, puromycin selection); used as cellular homogenate
Excerpt: Assay for Determination of IC50 Values for Inhibition of GBA2 in Cell Lysate
Stable GBA2-expressing HEK293T cells were generated as follows. The PCR-amplified human GBA2 (GBA2 nucleotide accession number BC011363) using the following primers: Sense 5′---CGCAAATGGGCGGTAGGCGTG (SEQ ID NO:2)---3′ and antisense 5′---TAGTCAGCCATGGGGCGGAGA (SEQ ID NO:3)---3′) was cloned into pLenti-GIII-CMV by ABM Inc. The correctness of the construct was verified by sequencing. Lentivirus particles containing GBA2 in the pLenti-GIII-CMV plasmid were prepared using a third Generation Virus Packaging Mix (ABM cat #LV053-G074) in HEK293T cells and supplied as a virus particle suspension. The virus suspension was used for infection of HEK293T cells. Cell populations stably expressing human GBA2 were selected using puromycin for several weeks as determined by activity assays and western blot.
Various concentrations of test compounds were prepared in DMSO and then diluted into buffer consisting of 100 mM citric acid, 200 mM disodium phosphate with 1% v/v C10E6, pH 5.5. Cellular homogenates (0.25 mg/mL) of the stable HEK293T-overexpressing GBA2 cell line were preincubated for 10 min on ice with an inhibitor of GCase (20 μM (6R,7R,8S)-8-ethyl-4-azaspiro[2.5]octane-6,7-diol). The reaction solution consisted of 20 μL of 750 μM 4-methylumbelliferone-β-D glucopyranoside in 5% DMSO in the same buffer, 20 μL of GBA2-cellular homogenate pre-treated with (6R,7R,8S)-8-ethyl-4-azaspiro[2.5]octane-6,7-diol and 20 μL of various concentrations of test compound in 10% DMSO in the same buffer. The final concentrations in the reaction were 0.083 mg/mL GBA2-cellular homogenate, 250 μM 4-methylumbelliferone-β-D glucopyranoside, and various concentrations of inhibitor. The inhibitor and GBA2-cellular homogenate were preincubated together for 5 min at 37° C. The reaction was initiated by addition of substrate and allowed to proceed for 20 min at 37° C. to assess GBA2 activity. Reactions were stopped by the addition of an equal volume (60 μL) of 0.5 M NaOH, 0.3 M glycine, pH 10.5. Fluorescence was measured on a Biotek Synergy H4 plate reader at wavelengths of 365 nm for excitation and 450 nm for emission. Incubations without added enzyme or added inhibitors were used to define no enzyme activity and maximal enzyme activity, respectively. IC50 values were determined by fitting the data to a log[inhibitor concentration] versus response curve using GraphPad Prism. IC50 values were calculated as the concentration of inhibitor required to inhibit GBA2 activity by 50%.

SMILES | IC50
C[C@@H]1[C@@H](O)[C@H](O)[C@@H](O)CN1CCc1ccccc1 [Example 35, (2R,3R,4R,5S)-2-methyl-1-phenethylpiperidine-3,4,5-triol] | 100 to 1000 nM
Cc1ccccc1CCN1C[C@H](O)[C@@H](O)[C@H](O)[C@H]1C [Example 36, (2R,3R,4R,5S)-2-methyl-1-(2-methylphenethyl)piperidine-3,4,5-triol] | 100 to 1000 nM
COc1ccccc1CCN1C[C@H](O)[C@@H](O)[C@H](O)[C@H]1C [Example 37, (2R,3R,4R,5S)-1-(2-methoxyphenethyl)-2-methylpiperidine-3,4,5-triol] | 100 to 1000 nM
C[C@@H]1[C@@H](O)[C@H](O)[C@@H](O)CN1CCc1ccccc1F [Example 38, (2R,3R,4R,5S)-1-(2-fluorophenethyl)-2-methylpiperidine-3,4,5-triol] | 100 to 1000 nM
C[C@@H]1[C@@H](O)[C@H](O)[C@@H](O)CN1CCc1ccccc1Cl [Example 39, (2R,3R,4R,5S)-1-(2-chlorophenethyl)-2-methylpiperidine-3,4,5-triol] | 100 to 1000 nM
C[C@@H]1[C@@H](O)[C@H](O)[C@@H](O)CN1CCc1cccc(F)c1F [Example 40, (2R,3R,4R,5S)-1-(2,3-difluorophenethyl)-2-methylpiperidine-3,4,5-triol] | 100 to 1000 nM
C[C@@H]1[C@@H](O)[C@H](O)[C@@H](O)CN1CCc1ccc(F)cc1F [Example 41, (2R,3R,4R,5S)-1-(2,4-difluorophenethyl)-2-methylpiperidine-3,4,5-triol] | 100 to 1000 nM
C[C@@H]1[C@@H](O)[C@H](O)[C@@H](O)CN1CCc1cc(F)ccc1F [Example 42, (2R,3R,4R,5S)-1-(2,5-difluorophenethyl)-2-methylpiperidine-3,4,5-triol] | < 100 nM
C[C@@H]1[C@@H](O)[C@H](O)[C@@H](O)CN1CCc1ccc(F)c(F)c1 [Example 43, (2R,3R,4R,5S)-1-(3,4-difluorophenethyl)-2-methylpiperidine-3,4,5-triol] | 100 to 1000 nM
COc1ccc(CCN2C[C@H](O)[C@@H](O)[C@H](O)[C@H]2C)c(F)c1 [Example 44, (2R,3R,4R,5S)-1-(2-fluoro-4-methoxyphenethyl)-2-methylpiperidine-3,4,5-triol] | 100 to 1000 nM
C[C@@H]1[C@@H](O)[C@H](O)[C@@H](O)CN1CCc1ccc(Cl)cc1F [Example 46, (2R,3R,4R,5S)-1-(4-chloro-2-fluorophenethyl)-2-methylpiperidine-3,4,5-triol] | 100 to 1000 nM
C[C@@H]1[C@@H](O)[C@H](O)[C@@H](O)CN1CCc1cc(Cl)ccc1F [Example 47, (2R,3R,4R,5S)-1-(5-chloro-2-fluorophenethyl)-2-methylpiperidine-3,4,5-triol] | < 100 nM
C[C@@H]1[C@@H](O)[C@H](O)[C@@H](O)CN1CCc1c(F)cccc1F [Example 48, (2R,3R,4R,5S)-1-(2,6-difluorophenethyl)-2-methylpiperidine-3,4,5-triol] | < 100 nM
C=C(C)c1cc(F)c(CCN2C[C@H](O)[C@@H](O)[C@H](O)[C@H]2C)c(F)c1 [Example 50, (2R,3R,4R,5S)-1-(2,6-difluoro-4-(prop-1-en-2-yl)phenethyl)-2-methylpiperidine-3,4,5-triol] | < 100 nM
C[C@@H]1[C@@H](O)[C@H](O)[C@@H](O)CN1CCc1ccc(OC2CCCOC2)cc1 (stereo partly drawn) [Example 62, (2R,3R,4R,5S)-2-methyl-1-(4-((tetrahydro-2H-pyran-3-yl)oxy)phenethyl)piperidine-3,4,5-triol] | < 100 nM

Same assay, conditions: cellular homogenate of HEK293T cells overexpressing human GBA2, 250 μM 4-methylumbelliferone-β-D glucopyranoside, pH 5.5, 37° C., GCase inhibitor present; read-out: GBA2 IC50

SMILES | IC50
C[C@@H]1[C@@H](O)[C@H](O)[C@@H](O)CN1CCCC1CCCCC1 [Example 34, (2R,3R,4R,5S)-1-(3-cyclohexylpropyl)-2-methylpiperidine-3,4,5-triol] | < 100 nM
C[C@@H]1[C@@H](O)[C@H](O)[C@@H](O)CN1CCc1ccc(OC2CCOC2)cc1 (stereo partly drawn) [Example 61, (2R,3R,4R,5S)-2-methyl-1-(4-((tetrahydrofuran-3-yl)oxy)phenethyl)piperidine-3,4,5-triol] | < 100 nM
